For this experiment, the target named is factor Xa (Homo sapiens, UniProt P00742). Briefly: Inhibition of factor Xa. Type of experiment: biochemical. As to conditions: Affinity to receptors. An excerpt:
The inhibition of factor Xa by the compounds according to the invention and the measurement of the anticoagulant and antithrombotic activity can be determined by conventional in-vitro or in-vivo methods. A suitable method is described, for example, by J. Hauptmann et al. in Thrombosis and Haemostasis 1990, 63, 220-223.
The inhibition of factor Xa can be measured, for example by the method of T. Hara et al. in Thromb. Haemostas. 1994, 71, 314-319.

SMILES strings stand for the structures. pIC50: −log10 of the molar value.

As usually defined, the pIC50 is the IC50 on a negative log10 scale, so that one unit is a factor of ten.

factor Xa, sequence (P00742 235-488 limits assumed): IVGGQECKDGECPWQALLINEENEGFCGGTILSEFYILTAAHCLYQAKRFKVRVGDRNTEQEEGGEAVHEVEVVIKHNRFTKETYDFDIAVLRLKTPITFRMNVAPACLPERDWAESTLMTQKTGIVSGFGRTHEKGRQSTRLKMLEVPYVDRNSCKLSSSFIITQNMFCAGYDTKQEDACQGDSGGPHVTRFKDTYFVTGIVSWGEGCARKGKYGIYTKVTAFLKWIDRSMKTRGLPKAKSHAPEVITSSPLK
factor Xa, sequence (P00742 41-179 partner limits assumed): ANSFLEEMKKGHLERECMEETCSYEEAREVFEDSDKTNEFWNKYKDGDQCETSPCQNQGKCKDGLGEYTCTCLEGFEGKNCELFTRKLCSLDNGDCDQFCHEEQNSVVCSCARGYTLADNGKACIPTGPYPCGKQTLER

`CC(C)CN(Cc1cccc(C(=O)O)c1)C(=O)C(=O)Nc1ccc(-c2ccccc2S(N)(=O)=O)cc1` [Example 7, 3-{[Isobutyl-(2′-sulfamoylbiphenyl-4-ylaminooxalyl)amino]methyl}benzoic acid] showed a pIC50 of 5.22.

Take `CC(C)CN(Cc1cccc(C(=N)N)c1)C(=O)C(=O)Nc1ccc(-c2ccc(CN)cc2)cc1` [Example 6, N-(4′-Aminomethylbiphenyl-4-yl)-N′-(3-amidinobenzyl)-N′-isobutyloxalamide]: the pIC50 is 5.82.

Consider `COC(=O)NC(=N)c1cccc(CN(CC(C)C)C(=O)C(=O)Nc2ccc(-c3ccccc3S(C)(=O)=O)cc2)c1` [Example 4, Methyl [imino-(3-{[isobutyl-(2′-methanesulfonylbiphenyl-4-ylaminooxalyl)amino]methyl}phenyl)methyl]carbamate], for which the pIC50 is 5.46. This pIC50 is 0.36 log units lower than that of the compound before.

Turning to `CC(C)CN(Cc1cccc(C(=N)N)c1)C(=O)C(=O)Nc1ccc(-c2ccccc2S(C)(=O)=O)cc1` [Example 3, N-(3-amidinobenzyl)-N-isobutyl-N′-(2′-methanesulfonylbiphenyl-4-yl)oxalamide], the pIC50 is 8.02.

`CC(C)CN(Cc1cccc(C(=N)N)c1)C(=O)C(=O)Nc1ccc(-c2ccccc2S(N)(=O)=O)cc1` [Example 1, N-(3-amidinobenzyl)-N-isobutyl-N′-(2′-sulfamoylbiphenyl-4-yl)oxalamide] had a pIC50 of 8.00.

The compound `CC(C)CN(Cc1cccc(C(=N)N)c1)C(=O)C(=O)Nc1ccc(-c2ccc(C(=N)N)cc2)cc1` [Example 5, N-(3-amidinobenzyl)-N′-(4′-amidinobiphenyl-4-yl)-N-isobutyloxalamide] had a pIC50 of 6.00.

With `CC(C)CN(Cc1cccc(C(=N)N)c1)C(=O)C(=O)Nc1ccc(-c2ccccc2S(=O)(=O)NC(C)(C)C)cc1` [Example 1g, N-(2′-tert-butylsulfamoylbiphenyl-4-yl)-N′-(3-amidinobenzyl)-N′-isobutyloxalamide], the pIC50 is 6.52. This pIC50 lies 0.52 log units higher than the previous one.

The record behind these values is US20040220411A1, “Oxalic acid derivatives” (priority 2001, published 2004).
